The text below walks through data of patent publication US10010572B2, “Composition for musculoskeletal pain” (priority 2015, dated 2018).

The test system of the data set is chronic musculoskeletal pain. Nature of the data set: Randomized, double-blind, placebo-controlled clinical study of topical analgesics (St. Lucia), Subjective Pain Intensity Rating (SPIR). The source says:
Chronic musculoskeletal pain is relatively common in all age groups and may be the result of work-related trauma, sports-related injuries, postural events, various traumas and the natural aging process. Pharmaceutical agents including non-steroidal anti-inflammatory drugs acetaminophen, opioids and other drugs are frequently used to treat such patients. Because of the potential adverse effects associated with most of these drugs, one embodiment of the present invention, a topical analgesic, with coconut oil as a base ingredient and other natural oils, was clinically tested to determine its efficacy in the management of chronic musculoskeletal pain.
One hundred ninety six (196) patients were enrolled in the study. The patients were randomized to the 3 groups using the nQuery Advisor version 7.0 software protocol.
After obtaining permission from the Committee for the Protection of Human Subjects attached to the St. Lucia Pain Institute, the Ministry of Health in St. Lucia and the St. Lucia Medical and Dental Association Ethics Committee, a randomized, double-blind, placebo-controlled study was designed and implemented in the Caribbean island of St. Lucia. St. Lucia was chosen as the study site for a number of reasons: that population is relatively opioid-naive; chronic musculoskeletal pain is quite common, and most patients tend to use and in some cases, prefer to use topical analgesics for musculoskeletal pain management instead of oral or other parenteral medications. Moreover, the Principal Investigator (inventor of the present invention) lives in St. Lucia for part of the year. One hundred and ninety-six (196) patients were enrolled in the study and were subsequently randomized to a pre-determined computerized protocol. […] The Diclofenac ointment was dispensed in a label-less tube.
All patients were initially evaluated by the Principal Investigator and another investigator after triage screening by the Study Coordinator. At that screening, the patients were assessed using the inclusionary and exclusionary criteria. […] Patients were recruited via television, radio and newspaper announcements, and interviews announcing the study. […] This study was supported and funded by three St. Lucian Financial Institutions.
Subjective Pain Intensity Rating (SPIR) was determined on each patient using a scale of 0 (no pain) to 10 (the maximum possible pain, e.g. immersion of the hand in boiling water). That raw score was multiplied by 10 to obtain a percentage score. […] After successful enrollment, patients were randomized to one of the 3 groups. Patients were dispensed with 5 ounces of one of the 3 medications and were instructed to apply the medication twice daily for 2 weeks.
All patients were contacted by the Study Coordinator after 2 weeks and pain score (as described above), satisfaction with the drug, satisfaction with the overall study and the presence of adverse effects were determined. Then, 2 weeks later (4 weeks after study commencement), patients were asked to return to the study office (St. Lucia Pain Institute office) for follow-up clinical evaluation and determination of pain score, adverse effects and related data similar to what was obtained at 2 weeks.

As to `O=C(O)Cc1ccccc1Nc1c(Cl)cccc1Cl` [Diclofenac], under “100 point scale, 3 month post-study telephone interview”, the “Median pain score at 3 months” value came out at 25%. For the same molecule, the “Median change in pain from baseline to 3 months (decrease)” value (100 point scale, decrease, not statistically significant among groups) was 30%. Moreover, the “patients with progressive radicular pain and paresthesiae (major adverse effect)” value (after 5 days, subsided on discontinuation, reappeared on re-introduction, study discontinued in that patient after 8 days) is reported as “One”. Besides, the “change in SPIR pain score from baseline to 2 weeks” value (patients with chronic axial musculoskeletal pain, topical twice daily, baseline to 2 weeks, all p<0.0001) is recorded as “corresponding decreases in pain scores”. In addition, the “change in SPIR pain score from baseline to 4 weeks” value (patients with chronic axial musculoskeletal pain, topical twice daily, baseline to 4 weeks, all p<0.0001) is given as “corresponding decreases in pain scores”. Besides, the “patients who developed superficial skin rashes” value (receded without therapy when the drug was discontinued) is listed as “Four”.
